Source: PMC5666153, “Klebsiella pneumoniae Carbapenemase-2 (KPC-2), Substitutions at Ambler Position Asp179, and Resistance to Ceftazidime-Avibactam: Unique Antibiotic-Resistant Phenotypes Emerge from β-Lactamase Protein Engineering” (mBio, 2017)
Values after ≈ are worked out from the molar mass of the structure shown. Read-outs that look alike come from different tables or passages of the source.

Key:
Assay in all cases: microbe, parasite or virus in culture
[1] = test system: T1, E. coli DH10B; parameters: species or system bacterial strain of the line; Mueller-Hinton agar-dilution MIC, CLSI; concentration at which bacterial growth was no longer observed; conditions: Escherichia coli
T1 construct: DH10B
Procedure: (§1) Mueller-Hinton (MH) agar-dilution MIC measurements were performed according to Clinical and Laboratory Standards Institute (CLSI) guidelines as previously described ([12], [30]). The MICs are reported as the concentrations at which bacterial growth was no longer observed. Avibactam was tested at a constant 4 µg/ml in combination with its respective antibiotic partners. All MIC measurements were performed at least three times. The impact of site-saturation mutagenesis at Ambler position 179 of KPC-2 on antibiotic resistance was next assessed using whole-cell viability assays. Twenty-four different β-lactam and β-lactam–β-lactamase inhibitor combinations were tested for susceptibility against KPC-2 and the 19 variants expressed in E. coli DH10B cells (Tables 1 and 2). The Klebsiella pneumoniae KPC-2-containing positive-control strain maintained resistance (as defined by Clinical and Laboratory Standards Institute [CLSI] criteria) against all the commercially available β-lactams tested (Table 1).

[2] = test system: T2, E. coli DH10B pBC SK; parameters: species or system bacterial strain of the line; Mueller-Hinton agar-dilution MIC, CLSI; concentration at which bacterial growth was no longer observed; conditions: Escherichia coli, empty vector pBC SK
T2 construct: DH10B carries empty vector pBC SK
Procedure: as §1

[3] = test system: T3, K. pneumoniae KPC-2; parameters: species or system bacterial strain of the line; Mueller-Hinton agar-dilution MIC, CLSI; concentration at which bacterial growth was no longer observed; conditions: Klebsiella pneumoniae
T3 construct: KPC-2-producing control strain, also producing TEM-1 and SHV-29

[4] = test system: T4, blaKPC-2 179 Asp (WT) in E. coli DH10B; parameters: species or system E. coli DH10B / K. pneumoniae; Mueller-Hinton agar dilution MIC, CLSI, no visible growth; conditions: Escherichia coli
T4 construct: DH10B expressing blaKPC-2 (wild type)
Procedure: Mueller-Hinton (MH) agar-dilution MIC measurements were performed according to Clinical and Laboratory Standards Institute (CLSI) guidelines as previously described ([12], [30]). The MICs are reported as the concentrations at which bacterial growth was no longer observed. Avibactam was tested at a constant 4 µg/ml in combination with its respective antibiotic partners. All MIC measurements were performed at least three times.

[5] = BAL, read-out: MIC(s) (µg/ml) / BAL

Molecule C[C@H]1[C@H](NC(=O)/C(=N\OC(C)(C)C(=O)O)c2csc(N)n2)C(=O)N1S(=O)(=O)O [AZT, aztreonam] has an MIC ([1]; DH10B, read-out: MIC(s) (µg/ml) / AZT) of 0.06 µg/mL and an MIC ([2]; DH10BPBCSK, read-out: MIC(s) (µg/ml) / AZT) of 0.06 µg/mL.
With CC1(C)[C@H](NC(=O)/C(=N\OCc2cc(=O)c(O)cn2O)c2csc(N)n2)C(=O)N1OS(=O)(=O)O [BAL30072] the MIC [1, 5] was ≤ 0.06 µg/mL, the MIC [2, 5] was ≤ 0.06 µg/mL and the MIC [3, 5] was 8 µg/mL (≈ 15.4 µM). For the same molecule, the MIC [4, 5] was ≤ 0.06 µg/mL.
Work on CC(C)(O/N=C(\C(=O)N[C@@H]1C(=O)N2C(C(=O)[O-])=C(C[n+]3ccccc3)CS[C@H]12)c1csc(N)n1)C(=O)O [CAZ, ceftazidime] yielded an MIC ([1]; DH10B, read-out: MIC(s) (µg/ml) / CAZ) of 0.25 µg/mL, an MIC ([2]; DH10BPBCSK, read-out: MIC(s) (µg/ml) / CAZ) of 0.25 µg/mL and an MIC ([3]; KPC2, read-out: MIC(s) (µg/ml) / CAZ) of 64 µg/mL (≈ 117 µM). For the same molecule, the MIC ([4]; read-out: MIC(s) (µg/ml) / CAZ) was 1 µg/mL.
For CO/N=C(\C(=O)N[C@@H]1C(=O)N2C(C(=O)O)=C(CSc3nc(=O)c(=O)[nH]n3C)CS[C@H]12)c1csc(N)n1 [CRO, ceftriaxone], the MIC ([1]; DH10B, read-out: MIC(s) (µg/ml) / CRO) was ≤ 0.06 µg/mL, the MIC ([2]; DH10BPBCSK, read-out: MIC(s) (µg/ml) / CRO) was ≤ 0.06 µg/mL and the MIC ([4]; read-out: MIC(s) (µg/ml) / CRO) was 0.5 µg/mL.
C[C@@H](O)[C@H]1C(=O)N2C(C(=O)O)=C(SCCN=CN)C[C@H]12 [IMI, imipenem] gave an MIC ([1]; DH10B, read-out: MIC(s) (µg/ml) / IMI) of 0.5 µg/mL, an MIC ([2]; DH10BPBCSK, read-out: MIC(s) (µg/ml) / IMI) of 0.5 µg/mL and an MIC ([3]; KPC2, read-out: MIC(s) (µg/ml) / IMI) of 16 µg/mL (≈ 53.4 µM). For the same molecule, the MIC ([4]; read-out: MIC(s) (µg/ml) / IMI) was 1 µg/mL.
For CCO/N=C(\C(=O)N[C@@H]1C(=O)N2C(C(=O)[O-])=C(Sc3nc(-c4cc[n+](C)cc4)cs3)CS[C@H]12)c1nsc(N)n1 [TAR, ceftaroline], the MIC ([1]; DH10B, read-out: MIC(s) (µg/ml) / TAR) was 0.06 µg/mL, the MIC ([2]; DH10BPBCSK, read-out: MIC(s) (µg/ml) / TAR) was < 0.06 µg/mL and the MIC ([3]; KPC2, read-out: MIC(s) (µg/ml) / TAR) was 512 µg/mL (≈ 847 µM). It also gave an MIC ([4]; read-out: MIC(s) (µg/ml) / TAR) of 1 µg/mL.
CC1(C)S[C@@H]2[C@H](NC(=O)[C@H](N)c3ccccc3)C(=O)N2[C@H]1C(=O)O [ampicillin] was tested, and the MIC ([1]; DH10B, read-out: MIC(s) (µg/ml) / AMP) was 8 µg/mL, the MIC ([2]; DH10BPBCSK, read-out: MIC(s) (µg/ml) / AMP) was 4 µg/mL and the MIC ([3]; KPC2, read-out: MIC(s) (µg/ml) / AMP) was > 8190 µg/mL. The MIC ([4]; read-out: MIC(s) (µg/ml) / AMP) was 64 µg/mL.
In the case of CO/N=C(\C(=O)N[C@@H]1C(=O)N2C(C(=O)[O-])=C(C[N+]3(C)CCCC3)CS[C@H]12)c1csc(N)n1 [cefepime], the MIC ([1]; DH10B, read-out: MIC(s) (µg/ml) / FEP) is reported as ≤ 0.125 µg/mL, the MIC ([2]; DH10BPBCSK, read-out: MIC(s) (µg/ml) / FEP) is reported as ≤ 0.125 µg/mL and the MIC ([3]; KPC2, read-out: MIC(s) (µg/ml) / FEP) is reported as 64 µg/mL (≈ 133 µM). For the same molecule, the MIC ([4]; read-out: MIC(s) (µg/ml) / FEP) was 0.125 µg/mL.
CO/N=C(\C(=O)N[C@@H]1C(=O)N2C(C(=O)O)=C(COC(C)=O)CS[C@H]12)c1csc(N)n1 [cefotaxime] was tested, and the MIC ([1]; DH10B, read-out: MIC(s) (µg/ml) / TAX) was ≤ 0.06 µg/mL, the MIC ([2]; DH10BPBCSK, read-out: MIC(s) (µg/ml) / TAX) was ≤ 0.06 µg/mL and the MIC ([3]; KPC2, read-out: MIC(s) (µg/ml) / TAX) was 64 µg/mL (≈ 141 µM). The MIC ([4]; read-out: MIC(s) (µg/ml) / TAX) was 0.25 µg/mL.
Molecule CC(=O)OCC1=C(C(=O)O)N2C(=O)[C@@H](NC(=O)Cc3cccs3)[C@H]2SC1 [cephalothin] has an MIC ([1]; DH10B, read-out: MIC(s) (µg/ml) / THIN) of 4 µg/mL, an MIC ([2]; DH10BPBCSK, read-out: MIC(s) (µg/ml) / THIN) of 4 µg/mL and an MIC ([3]; KPC2, read-out: MIC(s) (µg/ml) / THIN) of 2050 µg/mL (≈ 5170 µM). For the same molecule, the MIC ([4]; read-out: MIC(s) (µg/ml) / THIN) was 64 µg/mL.
C[C@@H](O)[C@H]1C(=O)N2C(C(=O)O)=C(S[C@@H]3CN[C@H](CNS(N)(=O)=O)C3)[C@H](C)[C@H]12 [doripenem] was tested, and the MIC ([1]; DH10B, read-out: MIC(s) (µg/ml) / DOR) was ≤ 0.06 µg/mL, the MIC ([2]; DH10BPBCSK, read-out: MIC(s) (µg/ml) / DOR) was ≤ 0.06 µg/mL and the MIC ([3]; KPC2, read-out: MIC(s) (µg/ml) / DOR) was 8 µg/mL (≈ 19 µM). The MIC ([4]; read-out: MIC(s) (µg/ml) / DOR) was 0.125 µg/mL.
In the case of C[C@@H](O)[C@H]1C(=O)N2C(C(=O)O)=C(S[C@@H]3CN[C@H](C(=O)Nc4cccc(C(=O)O)c4)C3)[C@H](C)[C@H]12 [ertapenem], the MIC ([1]; DH10B, read-out: MIC(s) (µg/ml) / ERT) is reported as ≤ 0.03 µg/mL, the MIC ([2]; DH10BPBCSK, read-out: MIC(s) (µg/ml) / ERT) is reported as ≤ 0.03 µg/mL and the MIC ([3]; KPC2, read-out: MIC(s) (µg/ml) / ERT) is reported as 32 µg/mL (≈ 67.3 µM). The MIC ([4]; read-out: MIC(s) (µg/ml) / ERT) was ≤ 0.06 µg/mL.
For C[C@@H](O)[C@H]1C(=O)N2C(C(=O)O)=C(S[C@@H]3CN[C@H](C(=O)N(C)C)C3)[C@H](C)[C@H]12 [meropenem], the MIC ([1]; DH10B, read-out: MIC(s) (µg/ml) / MEM) was ≤ 0.06 µg/mL, the MIC ([2]; DH10BPBCSK, read-out: MIC(s) (µg/ml) / MEM) was ≤ 0.06 µg/mL and the MIC ([3]; KPC2, read-out: MIC(s) (µg/ml) / MEM) was 16 µg/mL (≈ 41.7 µM). For the same molecule, the MIC ([4]; read-out: MIC(s) (µg/ml) / MEM) was 0.06 µg/mL.
With CCN1CCN(C(=O)N[C@@H](C(=O)N[C@@H]2C(=O)N3[C@@H]2SC(C)(C)[C@@H]3C(=O)O)c2ccccc2)C(=O)C1=O [piperacillin] the MIC ([1]; DH10B, read-out: MIC(s) (µg/ml) / PIP) was 2 µg/mL, the MIC ([2]; DH10BPBCSK, read-out: MIC(s) (µg/ml) / PIP) was 2 µg/mL and the MIC ([3]; KPC2, read-out: MIC(s) (µg/ml) / PIP) was 2050 µg/mL (≈ 3960 µM). It also gave an MIC ([4]; read-out: MIC(s) (µg/ml) / PIP) of 8 µg/mL.
